Source: patent US8173689B2 (Novartis AG, priority 2006, dated 2012)
Like-named read-outs stand apart in the source and are kept apart here.

Assays:
kinase domain of PDGFRβ = target: T1, kinase domain of PDGFRβ (Homo sapiens, UniProt P09619); assay: Inhibition of PDGFRb kinase signaling in an in vitro biochemical assay (alphascreen); settings: tested at about 1 μM; for inhibition at 1 µM: read-out: PDGFRβ percent inhibition
T1 construct: The kinase domain of PDGFRβ was assayed in 50 mM Hepes; purchased Invitrogen P3082
T1 sequence (P09619 600-962 limits assumed): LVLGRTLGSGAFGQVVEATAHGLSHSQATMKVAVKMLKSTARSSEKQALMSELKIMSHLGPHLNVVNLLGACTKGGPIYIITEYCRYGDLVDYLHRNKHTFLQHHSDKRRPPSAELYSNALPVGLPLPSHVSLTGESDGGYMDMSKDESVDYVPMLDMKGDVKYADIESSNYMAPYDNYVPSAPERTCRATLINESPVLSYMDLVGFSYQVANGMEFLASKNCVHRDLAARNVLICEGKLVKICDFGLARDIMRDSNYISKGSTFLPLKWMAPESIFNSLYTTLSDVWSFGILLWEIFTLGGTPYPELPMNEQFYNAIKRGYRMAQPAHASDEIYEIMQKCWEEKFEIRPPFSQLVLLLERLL

[1] = target: T2, cytoplasmic domain of the human CSF-1R (Homo sapiens, UniProt P07333); assay: In vitro kinase assay for colony stimulating factor-1 receptor (AlphaScreen); format: biochemical; settings: tested at about 1 μM, read-out: CSF-1R percent inhibition
T2 construct: Recombinant protein corresponding to the cytoplasmic domain of the human CSF-1R; purchased Invitrogen Corporation, Carlsbad, Calif; PV3249
T2 sequence (P07333 539-972 limits assumed): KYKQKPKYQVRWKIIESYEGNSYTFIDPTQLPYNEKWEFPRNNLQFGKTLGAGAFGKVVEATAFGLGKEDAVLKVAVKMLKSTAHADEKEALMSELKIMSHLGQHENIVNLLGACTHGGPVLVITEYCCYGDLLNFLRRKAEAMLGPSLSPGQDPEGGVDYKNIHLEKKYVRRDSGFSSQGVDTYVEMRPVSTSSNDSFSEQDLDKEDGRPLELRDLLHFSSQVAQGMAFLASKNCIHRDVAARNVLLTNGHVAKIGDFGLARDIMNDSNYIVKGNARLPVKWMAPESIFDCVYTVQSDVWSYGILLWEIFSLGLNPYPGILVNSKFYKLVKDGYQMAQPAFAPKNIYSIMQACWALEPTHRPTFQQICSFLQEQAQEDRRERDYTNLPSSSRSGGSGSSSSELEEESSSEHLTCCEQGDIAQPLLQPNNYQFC
Outline: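 Tyrosine phosphorylation of a peptide substrate by 4 nM recombinant cytoplasmic-domain enzyme is measured at 1 μM ATP in Mn2+/Mg2+-containing Hepes buffer, pH 7.5. Detection uses PT66 AlphaScreen beads after overnight incubation.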

[2] = tested on: MNFS60 (murine AML cells); assay: Cell viability assay in MCSF dependent MNFS60 cells (Cell Titer Glo); format: cell-based; settings: Mus musculus, tested at about 1 μM, read-out: M-NFS-60 CP percent inhibition
Outline: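 EC50 values reflect MCSF-driven (10 ng/ml final) proliferation over 72 hrs at 37° C., read by CellTiter-Glo. Each condition was run in triplicate.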

kinase domain of cKIT = target: T3, kinase domain of cKIT (Homo sapiens, UniProt P10721); assay: Inhibition of cKIT kinase signaling in an in vitro biochemical assay (alphascreen); settings: tested at about 1 μM; for inhibition at 1 µM: read-out: cKit percent inhibition
T3 construct: The kinase domain of cKIT was assayed in 50 mM Hepes; purchased Upstate 14-559
T3 sequence (P10721 589-937 limits assumed): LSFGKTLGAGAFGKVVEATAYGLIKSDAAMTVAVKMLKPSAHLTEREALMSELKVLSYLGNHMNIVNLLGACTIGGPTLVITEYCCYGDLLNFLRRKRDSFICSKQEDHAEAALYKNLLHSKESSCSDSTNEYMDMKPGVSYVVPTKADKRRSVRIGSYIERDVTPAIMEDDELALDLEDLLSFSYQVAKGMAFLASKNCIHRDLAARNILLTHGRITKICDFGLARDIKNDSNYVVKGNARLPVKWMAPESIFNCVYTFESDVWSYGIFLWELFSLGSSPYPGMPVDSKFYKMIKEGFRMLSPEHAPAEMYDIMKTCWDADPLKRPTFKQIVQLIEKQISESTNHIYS

[3] = target: T4, full-length human CSF-1R receptor (Homo sapiens, UniProt P07333); assay: In vitro inhibition of CSF-1R receptor tyrosine phosphorylation in transfected HEK293H cells stimulated with MCSF; format: cell-based; settings: HEK293-H, tested at about 1 μM, read-out: pCSF1R percent inhibition
T4 construct: transfected with the full-length human CSF-1R receptor cloned in house; expressed in transfected cells; host or cells: HEK293H (Invitrogen Cat. #11631017)
T4 sequence (P07333 20-972): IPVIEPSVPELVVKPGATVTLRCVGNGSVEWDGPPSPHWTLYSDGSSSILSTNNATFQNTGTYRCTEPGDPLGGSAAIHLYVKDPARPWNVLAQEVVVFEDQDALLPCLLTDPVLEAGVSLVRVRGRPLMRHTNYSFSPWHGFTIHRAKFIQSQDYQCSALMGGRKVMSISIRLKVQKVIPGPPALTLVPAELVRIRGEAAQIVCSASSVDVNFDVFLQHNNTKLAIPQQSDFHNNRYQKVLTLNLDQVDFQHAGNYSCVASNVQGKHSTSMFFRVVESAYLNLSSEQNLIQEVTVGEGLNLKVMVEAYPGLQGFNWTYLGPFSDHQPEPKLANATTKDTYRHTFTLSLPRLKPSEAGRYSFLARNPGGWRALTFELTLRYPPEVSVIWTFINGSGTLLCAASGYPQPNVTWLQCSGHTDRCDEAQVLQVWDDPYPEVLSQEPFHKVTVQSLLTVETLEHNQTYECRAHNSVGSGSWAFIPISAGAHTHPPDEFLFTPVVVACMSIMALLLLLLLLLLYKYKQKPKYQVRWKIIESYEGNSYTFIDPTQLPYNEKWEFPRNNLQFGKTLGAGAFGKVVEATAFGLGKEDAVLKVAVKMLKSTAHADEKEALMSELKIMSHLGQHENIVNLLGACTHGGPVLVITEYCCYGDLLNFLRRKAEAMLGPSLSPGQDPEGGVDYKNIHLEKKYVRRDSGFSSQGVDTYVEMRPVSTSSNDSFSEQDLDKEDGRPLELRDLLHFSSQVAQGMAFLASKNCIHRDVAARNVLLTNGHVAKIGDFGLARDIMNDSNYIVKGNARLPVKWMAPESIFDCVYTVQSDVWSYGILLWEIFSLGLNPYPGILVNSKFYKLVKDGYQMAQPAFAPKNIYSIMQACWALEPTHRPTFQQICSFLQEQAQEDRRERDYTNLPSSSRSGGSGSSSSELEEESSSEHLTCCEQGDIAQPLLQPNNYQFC
Method: The lysate was then transferred to total CSF-1R antibody coated 96-well plates that had already been blocked with 3% Blocker A from Mesoscale discovery (MSD) for 2 hours and washed afterwards. Lysates were incubated overnight at 4° C. and the plates were then washed 4× with MSD Tris Wash Buffer. […] The plates were read on the Sector 6000 instrument (MSD). Raw data was imported in Abase and EC50s calculated with XL-fit data analysis software.

Structure (SMILES) | inhibition at 1 µM (kinase domain of PDGFRβ) | inhibition at 1 µM [1] | inhibition at 1 µM (kinase domain of cKIT) | inhibition at 1 µM ([3]; HEK293H cells) | inhibition at 1 µM (kinase domain of PDGFRβ; compounds of Table 3) | inhibition at 1 µM ([1]; compounds of Table 3) | inhibition at 1 µM (kinase domain of cKIT; compounds of Table 3) | inhibition at 1 µM ([3]; compounds of Table 3) | PDGFRβ percent inhibition (kinase domain of PDGFRβ) | cKit percent inhibition (kinase domain of cKIT) | inhibition at 1 µM ([2]; MNFS60 cells) | inhibition at 1 µM ([2]; compounds of Table 3)
CNC(=O)c1cc(Oc2ccc3nc(NCc4ccccc4N4CCOCC4)sc3c2)ccn1 [Compound 142, 4-[2-(2-Morpholin-4-yl-benzylamino)-benzothiazol-6-yloxy]-2-pyridine-2-carboxylic acid methylamide] | 97% | 99% | 98% | 88% |  |  |  |  |  |  | 100% | 
CNC(=O)c1cc(Oc2ccc3nc(NCc4ccccc4-n4cccn4)sc3c2)ccn1 [Compound 143, 4-[2-(2-Pyrazol-1-yl-benzyl-amino)-benzothiazol-6-yloxy]-pyridine-2-carboxylic acid methylamide] | 4% | 99% | 33% | 91% |  |  |  |  |  |  | 97% | 
CNC(=O)c1cc(Oc2ccc3nc(NCc4c(OC)cccc4OC)sc3c2)ccn1 [Compound 145, 4-[2-(2,6-Dimethoxy-benzyl-amino)-benzothiazol-6-yloxy]-pyridine-2-carboxylic acid methylamide] | 25% | 99% | 34% | 98% |  |  |  |  |  |  | 100% | 
CNC(=O)c1cc(Oc2ccc3nc(NC[C@@H](O)c4ccccc4)sc3c2)ccn1 [Compound 145] |  |  |  |  | 33% | 100% | 39% | 86% |  |  |  | 58%
CNC(=O)c1cc(Oc2ccc3nc(NCc4cc(OC)ccc4OC)sc3c2)ccn1 [Compound 146, 4-[2-(2,5-Dimethoxy-benzyl-amino)-benzothiazol-6-yloxy]-pyridine-2-carboxylic acid methylamide] | 3% | 99% | 5% | 86% |  |  |  |  |  |  | 56% | 
CNC(=O)c1cc(Oc2ccc3nc(NCc4cccc(F)c4F)sc3c2)ccn1 [Compound 147, 4-[2-(2,3-Difluoro-benzylamino)-benzothiazol-6-yloxy]-pyridine-2-carboxylic acid methylamide] | 0% | 98% | 90% | 97% |  |  |  |  |  |  | 90% | 
CNC(=O)c1cc(Oc2ccc3nc(NCC4CCCCCC4)sc3c2)ccn1 [Compound 148, 4-[2-(Cycloheptylmethyl-amino)-benzothiazol-6-yloxy]-pyridine-2-carboxylic acid methylamide] | 100% | 99% | 99% | 98% |  |  |  |  |  |  | 100% | 
CNC(=O)c1cc(Oc2ccc3nc(NCc4c(F)cccc4F)sc3c2)ccn1 [Compound 149, 4-[2-(2,6-Difluoro-benzylamino)-benzothiazol-6-yloxy]-pyridine-2-carboxylic acid methylamide] | 0% | 99% | 4% | 92% |  |  |  |  |  |  | 67% | 
CNC(=O)c1cc(Oc2ccc3nc(NCc4ccccn4)sc3c2)ccn1 [Compound 150, 4-{2-[(Pyridin-2-ylmethyl)-amino]-benzothiazol-6-yloxy}-pyridine-2-carboxylic acid methylamide] | 1% | 99% | 34% | 87% |  |  |  |  |  |  | 49% | 
CNC(=O)c1cc(Oc2ccc3nc(NCc4cccc5c4OCCO5)sc3c2)ccn1 [Compound 152, 4-{2-[(2,3-Dihydro-benzo-[1,4]dioxin-5-ylmethyl)-amino]-benzothiazol-6-yloxy}-pyridine-2-carboxylic acid methylamide] | 82% | 99% | 100% | 98% |  |  |  |  |  |  | 100% | 
CNC(=O)c1cc(Oc2ccc3nc(NCc4cccnc4)sc3c2)ccn1 [Compound 154, 4-{2-[(Pyridin-3-ylmethyl)-amino]-benzothiazol-6-yloxy}-pyridine-2-carboxylic acid methylamide] | 18% | 99% | 17% | 93% |  |  |  |  |  |  | 48% | 
CNC(=O)c1cc(Oc2ccc3nc(NCc4c(F)cccc4OC)sc3c2)ccn1 [Example 223, 4-(2-(2-fluoro-6-methoxybenzylamino)benzo[d]thiazol-6-yloxy)-N-methylpicolinamide] |  |  |  |  | 28% | 100% | 54% | 97% |  |  |  | 100%

Continued, in another order:

inhibition at 1 µM (kinase domain of PDGFRβ) | inhibition at 1 µM [1] | inhibition at 1 µM (kinase domain of cKIT) | inhibition at 1 µM ([3]; HEK293H cells) | inhibition at 1 µM (kinase domain of PDGFRβ; compounds of Table 3) | inhibition at 1 µM ([1]; compounds of Table 3) | inhibition at 1 µM (kinase domain of cKIT; compounds of Table 3) | inhibition at 1 µM ([3]; compounds of Table 3) | PDGFRβ percent inhibition (kinase domain of PDGFRβ) | cKit percent inhibition (kinase domain of cKIT) | Structure (SMILES) | inhibition at 1 µM ([2]; MNFS60 cells) | inhibition at 1 µM ([2]; compounds of Table 3)
41% | 100% | 27% | 16% |  |  |  |  |  |  | CNC(=O)c1cc(Oc2ccc3nc(N[C@H]4CCCC[C@@H]4OCc4ccccc4)sc3c2)ccn1 [Compound 156, 4-[2-((1S,2S)-2-Benzyloxy-cyclohexylamino)-benzothiazol-6-yloxy]-pyridine-2-carboxylic acid methylamide] | 63% | 
 | 100% |  | 99% |  |  |  |  | 20% | 20% | CNC(=O)c1cc(Oc2ccc3nc(N[C@@H]4CCCC[C@H]4O)sc3c2)ccn1 [Compound 157, 4-[2-((1R,2R)-2-Hydroxy-cyclohexylamino)-benzothiazol-6-yloxy]-pyridine-2-carboxylic acid methylamide] | 100% | 
 |  |  |  | 23% | 100% | 29% | 96% |  |  | O[C@@H]1CCCC[C@H]1Nc1nc2ccc(Oc3ccnc(-c4cscn4)c3)cc2s1 [Compound 159] |  | 98%
 |  |  |  | 65% | 100% | 48% | 91% |  |  | N#Cc1ccc2nccc(Oc3ccc4nc(N[C@@H]5CCCC[C@H]5O)sc4c3)c2c1 [Example 220, 4-(2-((1R,2R)-2-hydroxycyclohexylamino)benzo[d]thiazol-6-yloxy)quinolin-6-carbonitrile] |  | 84%
 |  |  |  | 69% | 100% | 52% | 68% |  |  | N#Cc1ccc2c(Oc3ccc4nc(N[C@@H]5CCCC[C@H]5O)sc4c3)ccnc2c1 [Example 222, 4-(2-((1R,2R)-2-hydroxycyclohexylamino)benzo[d]thiazol-6-yloxy)quinoline-7-carbonitrile] |  | 91%
 |  |  |  | 30% | 100% | 21% | 92% |  |  | O[C@@H]1CCCC[C@H]1Nc1nc2ccc(Oc3ccnc4cc(F)ccc34)cc2s1 [Example 229, (1R,2R)-2-(6-(7-fluoroquinolin-4-yloxy)benzo[d]thiazol-2-ylamino)cyclohexanol] |  | 80%
 |  |  |  | 14% | 100% | 6% | 65% |  |  | O[C@@H]1CCCC[C@H]1Nc1nc2ccc(Oc3ccnc4cc(OC(F)(F)F)ccc34)cc2s1 [Example 230, (1R,2R)-2-(6-(7-(trifluoromethoxy)quinolin-4-yloxy)benzo[d]thiazol-2-ylamino)cyclohexanol] |  | 58%
 |  |  |  | 49% | 100% | 9% | 99% |  |  | Cc1c[nH]c(-c2cc(Oc3ccc4nc(N[C@@H]5CCCC[C@H]5O)sc4c3)ccn2)n1 [Example 231, (1R,2R)-2-(6-(2-(4-methyl-1H-imidazol-2-yl)pyridin-4-yloxy)benzo[d]thiazol-2-ylamino)cyclohexanol] |  | 100%
